Laboratory results taken from PubChem BioAssay AID977620 (Broad Institute, 2014).
The source made the active and inactive calls.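 Rule for the calls: active = signal-lowering curve whose fitted AC50 is at or under twice the top valid dose of that sample; inconclusive = flat fit with a moderate drop, or a poor fit; inactive = the rest.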

Columns and labels:
[1] = viability loss in A549 lung cancer cells – cell-based, CellTiter-Glo luminescence, dry powder, set 14, cytotoxicity control, dose response (AID 977620); settings: A549 viability, CellTiter-Glo ATP luminescence, 72 h; at 30 µM (top of the series)
[2] = test system: A549 viability, CellTiter-Glo ATP luminescence, 72 h; experiment: as above

SMILES | activity change, negative = cytotoxicity [1] | AC50 [2]
COc1ccc(NC(=O)c2cc(S(=O)(=O)N(C)C)ccc2N2CCCC2)cc1 | -10.6% (inactive) | –
Cc1cnc(NC(=O)c2cc(S(=O)(=O)N(C)C)ccc2C2CCCC2)s1 | – | > 60 µM (inactive)
CN(C)S(=O)(=O)c1ccc(N2CCCC2)c(C(=O)Nc2cccc(F)c2)c1 | -13.3% (inactive) | –
COc1ccc2nc(NC(=O)c3cc(S(=O)(=O)N(C)C)ccc3N3CCCC3)sc2c1 | -22.2% (inactive) | –
Cc1cnc(NC(=O)c2cc(S(=O)(=O)N(C)C)ccc2N(C)C)s1 | -11.3% (inactive) | –
CN(C)S(=O)(=O)c1ccc(N2CCCC2)c(C(=O)Nc2ccccc2Cl)c1 | -2.95% (inactive) | –
Cc1cnc(NC(=O)c2cc(S(=O)(=O)N(C)C)ccc2N2CCNCC2)s1 | -10.1% (inactive) | –
Cc1cnc(NC(=O)c2cc(S(=O)(=O)NCc3ccccc3)ccc2N2CCCC2)s1 | -16.4% (inactive) | –
Cc1cnc(NC(=O)c2cc(S(=O)(=O)N(C)C)ccc2N2CCC2)s1 | – | > 60 µM (inactive)
Cc1cnc(NC(=O)c2cc(S(=O)(=O)N3CCCCC3)ccc2N2CCCC2)s1 | – | > 60 µM (inactive)
Cc1nnc(NC(=O)c2cc(S(=O)(=O)N(C)C)ccc2N2CCCC2)s1 | -7.41% (inactive) | –
CCN(CC)S(=O)(=O)c1ccc(N2CCCC2)c(C(=O)Nc2ncc(C)s2)c1 | – | > 60 µM (inactive)
CN(C)S(=O)(=O)c1ccc(N2CCCC2)c(C(=O)Nc2nccs2)c1 | – | > 60 µM (inactive)
COc1ccc2sc(NC(=O)c3cc(S(=O)(=O)N(C)C)ccc3N3CCCC3)nc2c1 | – | > 60 µM (inactive)
CN(C)S(=O)(=O)c1ccc(N2CCCC2)c(C(=O)Nc2ccccc2)c1 | – | > 60 µM (inactive)
CN(C)S(=O)(=O)c1ccc(N2CCCC2)c(C(=O)NC2CCCCC2)c1 | -6.42% (inactive) | –
Cc1cnc(NC(=O)c2cc(S(=O)(=O)N(CC(C)C)CC(C)C)ccc2N2CCCC2)s1 | – | > 60 µM (inactive)
CN(C)CCCN(Cc1cc2ccccc2[nH]c1=O)C(=O)Nc1ccccc1 | -3.6% (inactive) | –

SMILES | activity change, negative = cytotoxicity [1] | AC50 [2]
COc1ccccc1NC(=O)c1cc(S(=O)(=O)N(C)C)ccc1N1CCCC1 | -6.88% (inactive) | –
Cc1cnc(NC(=O)c2cc(S(=O)(=O)N(C)c3ccccc3)ccc2N2CCCC2)s1 | 0.919% (inactive) | –
CN(C)S(=O)(=O)c1ccc(N2CCCC2)c(C(=O)Nc2nc3ccccc3s2)c1 | – | 25.9 µM
Cc1cnc(NC(=O)c2cc(S(=O)(=O)N(C)C)ccc2N2CCCCC2)s1 | – | > 60 µM (inactive)
CCN(CC)c1ccc(S(=O)(=O)N(C)C)cc1C(=O)Nc1ncc(C)s1 | – | > 60 µM (inactive)
Cc1cnc(NC(=O)c2cc(S(=O)(=O)N3CCOCC3)ccc2N2CCCC2)s1 | – | 23.3 µM
CN(C)CCCN(Cc1cc2ccccc2[nH]c1=O)C(=O)NCc1ccccc1 | -11.2% (inactive) | –
Cc1cnc(NC(=O)c2cccc(S(=O)(=O)N(C)C)c2)s1 | 3.41% (inactive) | –
CN(C)S(=O)(=O)c1ccc(N2CCCC2)c(C(=O)Nc2ccc(Br)cc2)c1 | – | > 60 µM (inactive)
Cc1cnc(NC(=O)c2cc(S(=O)(=O)N3CCNCC3)ccc2N2CCCC2)s1 | – | > 60 µM (inactive)
CN(C)S(=O)(=O)c1ccc(N2CCCC2)c(C(=O)Nc2cccnc2)c1 | -10% (inactive) | –
CN(C)S(=O)(=O)c1ccc(N2CCCC2)c(C(=O)N2CCOCC2)c1 | -6.88% (inactive) | –
CN(C)C(=O)c1cc(S(=O)(=O)N(C)C)ccc1N1CCCC1 | -2.1% (inactive) | –
Cc1ccccc1NC(=O)c1cc(S(=O)(=O)N(C)C)ccc1N1CCCC1 | -11.9% (inactive) | –
Cc1ccc(NC(=O)c2cc(S(=O)(=O)N(C)C)ccc2N2CCCC2)cc1 | – | > 60 µM (inactive)
Cc1nc(NC(=O)c2cc(S(=O)(=O)N(C)C)ccc2N2CCCC2)n[nH]1 | -5.15% (inactive) | –
COc1cccc2sc(NC(=O)c3cc(S(=O)(=O)N(C)C)ccc3N3CCCC3)nc12 | -3.6% (inactive) | –
CN(C)S(=O)(=O)c1ccc(N2CCCC2)c(C(=O)Nc2ccncc2)c1 | -5.75% (inactive) | –
